Test results reported in patent US20240165123A1, “USE OF A COMPOUND CONTAINING A TRICYCLIC HETEROARYL GROUP” (CSPC Zhongqi Pharmaceutical Technology (Shijiazhuang) Co., …, priority 2021, published 2024).

System: IMQ-induced mouse psoriasis model
Assay: Pharmacodynamic test in the IMQ-induced mouse psoriasis model
Format: in vivo, female Balb/c mice
Design: key to Skin PASI score Erythema / Skin PASI score Scaling / Skin PASI score Thickness: PASI component score, 0-4 points; key to Skin PASI Total Score: sum of erythema, scaling, thickness scores (each 0-4); key to Skin pathological score: sum of histopathology criterion points
Conditions: for Epidermal thickness / IL-6 content in skin (ELISA) / Skin pathological score / Spleen weight / Spleen weight/body weight (spleen index) / TNF-alpha content in skin (ELISA): after 14 days of treatment
From the text: The purpose of this test was to evaluate the pharmacodynamics of Compound (I) in the IMQ (5% imiquimod cream cream)-induced mouse psoriasis model. One of the clinical adverse effects of imiquimod is to induce the onset of psoriasis.
• Test medicament: Compound (I) • Positive control medicament: dexamethasone (Dex) • Vehicle: 0.4% Tween 80/0.5% methylcellulose.
• female Balb/c mice aged 5-6 weeks, number: 70.
The animals were randomly divided into seven groups according to the body weights on the day before the start of the experiment.
The animals were shaved on their back one day before applying the medicament, forming a skin exposure area having a size of about 2 cm×3 cm. The mice were induced by IMQ, and applied with 62.5 mg of 5% imiquimod cream on the bare back and the right ear at regular intervals every day for 14 days. Mice in the normal control group were applied with vaseline on the bare back and the right ear at regular intervals every day.
The skin thickness was measured daily from the first day of the test until the end of the test.
The skin thickness measurement method was as follows: the back skin and the subcutaneous tissue of the mouse were pinched with the thumb and the index finger of the left hand in the same direction as the mouse body; the skinfold thickness was measured 1 cm away from the pinched part of the left hand (near the center of the molding part) with a digital thickness gauge (with millesimal reading) held in the right hand (model BK-3281, manufacturer: Shanghai Niuhui). The thickness was in mm, and the actual thickness was the half of the measured thickness (the skin thickness=the measured value/2).
The ear thickness was measured daily (at the center of the auricle).
Skin photographs were taken daily from the first day of the test until the end of the test.
The clinical symptoms were evaluated with the PASI evaluation standard from three indicators of the erythema (Erythema), the scale (Scaling) and the skin thickness (Thickness), and scored with 0-4 points. The total score was obtained by summing the three scores. The PASI evaluation standard was as follows: 0, asymptomatic; 1, mild; 2, moderate; 3, severe; 4, extremely severe.
Erythema: 0—no erythema visible; 1—light red; 2—red; 3—dark red; 4—extremely dark red.
Scaling: 0—no visible scale on the skin surface; 1—part of the skin lesion surface covered with scales; 2—most of the skin lesion surface covered with scales; 3—almost all of the skin lesion region covered with scales; 4—all of the skin lesion region covered with scales.
Dryness and pruritus are not included in the total score.
On the 14th day of the test, the spleen weight was collected.
After the test, all mice were euthanized by excessive inhalation of carbon dioxide. The skin was collected and divided into four parts, one of which was fixed in a tissue fixative solution for 24 hours for the pathological is detection. It was dehydrated, then embedded in paraffin and made into 4-micron sections. Skin sections were stained with hematoxylin eosin to observe the infiltration of the stratum corneum, the epidermal layer, the dermis layer and the inflammatory cell. When measuring the thickness of the epidermal layer, the stained skin sections were scanned with a Leca Aperio CS2 scanner at 200×magnification, and then the histopathological changes were observed and scored.
The specific criteria of the pathological score were as follows: munro microabscess found in the epidermal layer 2.0 points; hyperkeratosis 0.5 points; parakeratosis 1.0 points; the thinning or disappearing of the granular layer 1.0 points; the thickening of acanthosis 1.0 points; the extension and fluctuation of cuticular process 0.5, 1.0 and 1.5 points respectively according to the mild, moderate and severe degrees. […]

## NC(=O)c1cnc(Nc2ccc3c(c2)OC[C@H]2CN(S(=O)(=O)C4CC4)CCN32)nc1NC1CC1 [Compound (I), (R)-4-(cyclopropylamino)-2-((3-(cyclopropylsulfonyl)-1,2,3,4,4a,5-hexahydrobenzo[b]pyrazolo[1,2-d][1,4]oxazin-8-yl)amino)pyrimidine-5-arboxamide]
3 mpk PO bid, 1st Day
  Ear thickness Left: 0.15 ± 0.00 mm
  Ear thickness Right: 0.15 ± 0.00 mm
  Ear thickness Right-Left: 0.00 ± 0.00 mm
  Skin PASI Total Score: 0.00 ± 0.00
  Skin PASI score Erythema: 0.00 ± 0.00
  Skin PASI score Scaling: 0.00 ± 0.00
  Skin PASI score Thickness: 0.00 ± 0.00
  Skin thickness: 0.32 ± 0.00 mm
3 mpk PO bid, 14th Day
  Ear thickness Left: 0.16 ± 0.00 mm
  Ear thickness Right: 0.48 ± 0.01 mm
  Ear thickness Right-Left: 0.32 ± 0.01 mm
  Skin PASI Total Score: 8.10 ± 0.23
  Skin PASI score Erythema: 3.00 ± 0.00
  Skin PASI score Scaling: 2.30 ± 0.15
  Skin PASI score Thickness: 2.80 ± 0.13
  Skin thickness: 0.51 ± 0.01 mm
3 mpk PO bid
  Epidermal thickness: 136.10 ± 5.96 μm
  IL-6 content in skin (ELISA): 554.74 ± 88.14 pg/g
  Skin pathological score: 7.75 ± 0.39
  Spleen weight: 231.44 ± 12.72 mg
  Spleen weight/body weight (spleen index): 14.46 ± 0.71 mg/g
  TNF-alpha content in skin (ELISA): 1191.74 ± 124.81 pg/g
10 mpk PO bid, 1st Day
  Ear thickness Left: 0.14 ± 0.00 mm
  Ear thickness Right: 0.14 ± 0.00 mm
  Ear thickness Right-Left: 0.00 ± 0.00 mm
  Skin PASI Total Score: 0.00 ± 0.00
  Skin PASI score Erythema: 0.00 ± 0.00
  Skin PASI score Scaling: 0.00 ± 0.00
  Skin PASI score Thickness: 0.00 ± 0.00
  Skin thickness: 0.32 ± 0.00 mm
10 mpk PO bid, 14th Day
  Ear thickness Left: 0.15 ± 0.00 mm
  Ear thickness Right: 0.44 ± 0.00 mm
  Ear thickness Right-Left: 0.28 ± 0.00 mm
  Skin PASI Total Score: 7.70 ± 0.60
  Skin PASI score Erythema: 2.90 ± 0.10
  Skin PASI score Scaling: 2.40 ± 0.27
  Skin PASI score Thickness: 2.40 ± 0.27
  Skin thickness: 0.53 ± 0.02 mm
10 mpk PO bid
  Epidermal thickness: 131.63 ± 7.15 μm
  IL-6 content in skin (ELISA): 641.83 ± 96.28 pg/g
  Skin pathological score: 7.45 ± 0.80
  Spleen weight: 182.01 ± 9.11 mg
  Spleen weight/body weight (spleen index): 11.71 ± 0.56 mg/g
  TNF-alpha content in skin (ELISA): 1432.02 ± 152.77 pg/g
30 mpk PO bid, 1st Day
  Ear thickness Left: 0.14 ± 0.00 mm
  Ear thickness Right: 0.14 ± 0.00 mm
  Ear thickness Right-Left: 0.00 ± 0.00 mm
  Skin PASI Total Score: 0.00 ± 0.00
  Skin PASI score Erythema: 0.00 ± 0.00
  Skin PASI score Scaling: 0.00 ± 0.00
  Skin PASI score Thickness: 0.00 ± 0.00
  Skin thickness: 0.32 ± 0.00 mm
30 mpk PO bid, 14th Day
  Ear thickness Left: 0.16 ± 0.00 mm
  Ear thickness Right: 0.41 ± 0.01 mm
  Ear thickness Right-Left: 0.26 ± 0.01 mm
  Skin PASI Total Score: 5.50 ± 0.31
  Skin PASI score Erythema: 2.90 ± 0.10
  Skin PASI score Scaling: 1.20 ± 0.13
  Skin PASI score Thickness: 1.40 ± 0.16
  Skin thickness: 0.50 ± 0.01 mm
30 mpk PO bid
  Epidermal thickness: 121.75 ± 8.17 μm
  IL-6 content in skin (ELISA): 638.09 ± 59.63 pg/g
  Skin pathological score: 5.55 ± 0.90
  Spleen weight: 146.81 ± 7.71 mg
  Spleen weight/body weight (spleen index): 9.27 ± 0.47 mg/g
  TNF-alpha content in skin (ELISA): 1236.41 ± 100.8 pg/g
60 mpk PO bid, 1st Day
  Ear thickness Left: 0.14 ± 0.00 mm
  Ear thickness Right: 0.14 ± 0.00 mm
  Ear thickness Right-Left: 0.00 ± 0.00 mm
  Skin PASI Total Score: 0.00 ± 0.00
  Skin PASI score Erythema: 0.00 ± 0.00
  Skin PASI score Scaling: 0.00 ± 0.00
  Skin PASI score Thickness: 0.00 ± 0.00
  Skin thickness: 0.33 ± 0.01 mm
60 mpk PO bid, 14th Day
  Ear thickness Left: 0.15 ± 0.00 mm
  Ear thickness Right: 0.38 ± 0.01 mm
  Ear thickness Right-Left: 0.22 ± 0.01 mm
  Skin PASI Total Score: 4.60 ± 0.34
  Skin PASI score Erythema: 2.00 ± 0.15
  Skin PASI score Scaling: 1.20 ± 0.13
  Skin PASI score Thickness: 1.40 ± 0.16
  Skin thickness: 0.43 ± 0.02 mm
60 mpk PO bid
  Epidermal thickness: 113.28 ± 6.95 μm
  IL-6 content in skin (ELISA): 499.72 ± 95.81 pg/g
  Skin pathological score: 5.05 ± 0.88
  Spleen weight: 125.73 ± 4.63 mg
  Spleen weight/body weight (spleen index): 8.01 ± 0.28 mg/g
  TNF-alpha content in skin (ELISA): 1188.81 ± 159.63 pg/g
